Data set [1] deals with sodium channel. The data set can be described thus: Guanidine influx assay. The data set is classed as cell-based, human or rat. The following applies: known cell line that expresses a sodium channel; read-out: IC50 Activity Level. The source says:
This example describes an in vitro assay for testing and profiling test agents against human or rat sodium channels stably expressed in cells of either an endogenous or recombinant origin. The assay is also useful for determining the IC50 of a sodium channel blocking compound. The assay is based on the guanidine flux assay described by Reddy, N. L., et al., J. Med. Chem. (1998), 41(17):3298-302.
The guanidine influx assay is a radiotracer flux assay used to determine ion flux activity of sodium channels in a high-throughput microplate-based format. The assay uses ^14C-guanidine hydrochloride in combination with various known sodium channel modulators, to assay the potency of test agents. Potency is determined by an IC50 calculation. Selectivity is determined by comparing potency of the compound for the channel of interest to its potency against other sodium channels (also called ‘selectivity profiling’).
Each of the test agents is assayed against cells that express the channels of interest. Voltage gated sodium channels are either TTX sensitive or insensitive. This property is useful when evaluating the activities of a channel of interest when it resides in a mixed population with other sodium channels. The following Table 1 summarizes cell lines useful in screening for a certain channel activity in the presence or absence of TTX.
It is also possible to employ recombinant cells expressing these sodium channels. Cloning and propagation of recombinant cells are known to those skilled in the art (see, for example, Klugbauer, N, et al., EMBO J. (1995), 14(6):1084-90; and Lossin, C., et al., Neuron (2002), 34, pp. 877-884).
Cells expressing the channel of interest are grown according to the supplier or in the case of a recombinant cell in the presence of selective growth media such as G418 (Gibco/Invitrogen). The cells are disassociated from the culture dishes with an enzymatic solution (1×) Trypsin/EDTA (Gibco/Invitrogen) and analyzed for density and viability using haemocytometer (Neubauer). Disassociated cells are washed and resuspended in their culture media then plated into Scintiplates (Beckman Coulter Inc.) (approximately 100,000 cells/well) and incubated at 37° C./5% CO2. for 20-24 hours. After an extensive wash with Low sodium HEPES-buffered saline solution (LNHBSS) (150 mM Choline Chloride, […] (Sigma), 1 mM Calcium Chloride, 5 mM Potassium Chloride, 1 mM Magnesium Chloride, 10 mM Glucose) agents diluted with LNHBSS are added to each well. (Varying concentrations of test agent may be used). The activation/radiolabel mixture contains aconitine (Sigma) to increase the percentage of time that the sodium channels are open, and ^14C-guanidine hydrochloride (ARC) to measure flux through the voltage-gated sodium channels.
After loading the cells with test agent and activation/radiolabel mixture, the Scintiplates are incubated at ambient temperature. Following the incubation, the Scintplates are extensively washed with LNHBSS supplemented with guanidine (Sigma). The Scintiplates are dried and then counted using a Wallac MicroBeta TriLux (Perkin-Elmer Life Sciences). The ability of the test agent to block sodium channel activity is determined by comparing the amount of ^14C-guanidine present inside the cells expressing the different sodium channels.
The IC50 value of a test agent for a specific sodium channel may be determined using the above general method. […] Typically the mid-point concentration of test agent is set at 1 μM, and sequential concentrations of half dilutions greater or smaller are applied (e.g. 0.5 μM; 5 μM and 0.25 μM; 10 μM and 0.125 μM; 20 μM etc.). The IC50 curve is calculated using the 4 Parameter Logistic Model or Sigmoidal Dose-Response Model formula (fit=(A+((B−A)/(1+((C/x)^D)))).
The fold selectivity, factor of selectivity or multiple of selectivity, is calculated by dividing the IC50 value of the test sodium channel by the reference sodium channel, for example, NaV1.5. […]

Data set [2] has as its target T1, CYP3A4 (Homo sapiens, UniProt P08684).
T1 construct: purchased Invitrogen Corporation (Vivid CYP450 Screening Kit)
The data set is described as follows: Cytochrome P450 (CYP450) inhibition assay, fluorescence-based. The note with it: recombinant CYP3A4 (P450 Baculosomes), probe Vivid substrate (fluorogenic). The data set is classed as in vitro ADME.

Some results are limits rather than exact numbers.

The values below come from patent publication US8101647B2, “Spiro-oxindole compounds and their use as therapeutic agents” (Xenon Pharmaceuticals Inc., priority 2008, dated 2012).

T1 sequence (P08684 whole entry): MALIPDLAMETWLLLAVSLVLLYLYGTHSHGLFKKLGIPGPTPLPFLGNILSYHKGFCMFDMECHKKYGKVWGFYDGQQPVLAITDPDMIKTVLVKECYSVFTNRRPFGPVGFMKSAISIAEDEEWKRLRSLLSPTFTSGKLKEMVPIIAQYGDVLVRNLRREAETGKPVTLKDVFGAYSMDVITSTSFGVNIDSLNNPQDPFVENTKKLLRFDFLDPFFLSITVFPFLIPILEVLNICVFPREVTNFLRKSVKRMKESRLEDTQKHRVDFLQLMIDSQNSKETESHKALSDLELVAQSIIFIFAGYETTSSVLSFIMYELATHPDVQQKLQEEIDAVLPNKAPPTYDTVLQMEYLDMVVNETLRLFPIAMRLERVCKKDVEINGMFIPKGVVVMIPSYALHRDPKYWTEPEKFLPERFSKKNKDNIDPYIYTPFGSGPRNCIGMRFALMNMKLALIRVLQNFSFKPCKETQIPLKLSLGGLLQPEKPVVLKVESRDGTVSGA

In turn, `Cl.O=C1N(Cc2ccc(N[C@@H]3CCNC3)cc2)c2ccccc2C12COc1cc3c(cc12)OCO3` (stereo partly drawn) registered a melting point of 190 to 195 °C.
`CN(C)CCOc1ccc2c(c1)OCC21C(=O)Nc2ccccc21` (stereo not drawn) [Example 2, 6-[2-(dimethylamino)ethoxy]spiro[1-benzofuran-3,3′-indol]-2′(1′H)-one]: the melting point was 95 to 97 °C. Further, the IC50 in data set [1] is not below 10000 nM.
On to `CC(C)[Si](Oc1ccc2c(c1)OCC21C(=O)N(C[C@H]2CCCO2)c2ccccc21)(C(C)C)C(C)C` (stereo partly drawn) [Example 4, 1′-[(2R)-tetrahydrofuran-2-ylmethyl]-6-{[tris(1-methylethyl)silyl]oxy}spiro[1-benzofuran-3,3′-indol]-2′(1′H)-one], for which, in data set [1], the IC50 lay within 100 to 1000 nM.
`CC(C)(C)OC(=O)N1CC[C@@H](Nc2ccc(CN3C(=O)C4(COc5cc6c(cc54)OCO6)c4ccccc43)cc2)C1` (stereo partly drawn) [Example 5, tert-butyl (3R)-3-({4-[(2′-oxospiro[furo[2,3-f][1,3]benzodioxole-7,3′-indol]-1′(2′H)-yl)methyl]phenyl}-amino)pyrrolidine-1-carboxylate] gave a melting point of 115 to 118 °C.
The same measure, in the same setting: the same measure for `O=C1N(Cc2ccc(N[C@@H]3CCNC3)cc2)c2ccccc2C12COc1cc3c(cc12)OCO3` (stereo partly drawn) [Example 6, 1′-{4-[(3R)-pyrrolidin-3-ylamino]benzyl}spiro[furo[2,3-f][1,3]benzodioxole-7,3′-indol]-2′(1′H)-one]: 118 to 121 °C.
`CC(=O)N1CCC[C@H]1CN1C(=O)C2(COc3cc4c(cc32)CCO4)c2ccccc21` (stereo partly drawn) [Example 8, 1′-{[(2S)-1-acetylpyrrolidin-2-yl]methyl}-5,6-dihydrospiro[benzo[1,2-b:5,4-b′]difuran-3,3′-indol]-2′(1′H)-one] showed a melting point of 103 to 108 °C. In data set [1], the IC50 was in the range of 1000 to 10000 nM. The inhibition at 10 µM in data set [2] was more than 50%.
As to `N/C(CN1C(=O)C2(COc3cc4c(cc32)OCO4)c2c(Cl)cccc21)=N\OC(=O)C1CC1` (stereo not drawn) [Example 11, 2-(4′-chloro-2′-oxospiro[furo[2,3-f][1,3]benzodioxole-7,3′-indol]-1′(2′H)-yl)-N′-[(cyclopropylcarbonyl)oxy]ethanimidamide], in data set [1], the IC50 was 100 to 1000 nM. For the same compound, the inhibition at 10 µM in data set [2] was more than 50%.
`NC(=O)COc1cccc(CN2C(=O)C3(COc4cc5c(cc43)CCO5)c3ccccc32)c1` (stereo not drawn) [Example 13, 2-{3-[(2-oxo-5,6-dihydrospiro[benzo[1,2-b:5,4-b]difuran-3,3-indol]-1(2H)-yl)methyl]phenoxy}acetamide]: the melting point lay in the range of 109 to 111 °C. In data set [1], the half-maximal inhibitory concentration (IC50) fell in the range of 1 to 100 nM. In data set [2], the inhibition at 10 µM is more than 50%.
The corresponding values for `NC(=O)COc1ccc(CN2C(=O)C3(COc4cc5c(cc43)CCO5)c3ccccc32)cc1` (stereo not drawn) [Example 13.1, 2-{4-[(2′-oxo-5,6-dihydrospiro[benzo[1,2-b:5,4-b′]difuran-3,3′-indol]-1′(2′H)-yl)methyl]phenoxy}acetamide] are 215 to 216 °C, 1 to 100 nM and less than 50%.
As for `COCCOc1ccc(CN2C(=O)C3(COc4cc5c(cc43)OCCO5)c3ccccc32)cc1` (stereo not drawn) [Example 13.3, 1′-[4-(2-methoxyethoxy)benzyl]-2,3-dihydrospiro[furo[2,3-g][1,4]benzodioxine-8,3′-indol]-2′(1′H)-one], the melting point was in the range of 124 to 125 °C. In addition, the IC50 in data set [1] lay in the range of 1 to 100 nM. For the same compound, the inhibition at 10 µM in data set [2] is more than 50%.
The like results for `CCOC(=O)COc1ccc(CN2C(=O)C3(COc4cc5c(cc43)CCO5)c3ccccc32)cc1` (stereo not drawn) [Example 14.1, ethyl {4-[(2′-oxo-5,6-dihydrospiro[benzo[1,2-b:5,4-b′]difuran-3,3′-indol]-1′(2′H)-yl)methyl]phenoxy}acetate] were, in that order, 158 to 159 °C, 1 to 100 nM and less than 50%.
The like results for `CCOC(=O)COc1ccc(CN2C(=O)C3(COc4cc5c(cc43)OCCO5)c3ccccc32)cc1` (stereo not drawn) [Example 14.2, ethyl {4-[(2′-oxo-2,3-dihydrospiro[furo[2,3-g][1,4]benzodioxine-8,3′-indol]-1′(2′H)-yl)methyl]phenoxy}acetate] were, in that order, 59 to 61 °C, 1 to 100 nM and less than 50%.
The like results for `O=C(O)COc1cccc(CN2C(=O)C3(COc4cc5c(cc43)CCO5)c3ccccc32)c1` (stereo not drawn) [Example 15, {3-[(2′-oxo-5,6-dihydrospiro[benzo[1,2-b:5,4-b′]difuran-3,3′-indol]-1′(2′H)-yl)methyl]phenoxy}acetic acid] were, in that order, 95 to 96 °C, 1000 to 10000 nM and less than 50%.
`O=C(O)COc1ccc(CN2C(=O)C3(COc4cc5c(cc43)CCO5)c3ccccc32)cc1` (stereo not drawn) [Example 15.1, {4-[(2′-oxo-5,6-dihydrospiro[benzo[1,2-b:5,4-b′]difuran-3,3′-indol]-1′(2′H)-yl)methyl]phenoxy}acetic acid] registered a melting point of 265 to 266 °C. Further, the inhibition at 10 µM in data set [2] is less than 50%.
The corresponding values for `O=C(O)COc1ccc(CN2C(=O)C3(COc4cc5c(cc43)OCCO5)c3ccccc32)cc1` (stereo not drawn) [Example 15.2, {4-[(2′-oxo-2,3-dihydrospiro[furo[2,3-g][1,4]benzodioxine-8,3′-indol]-1′(2′H)-yl)methyl]phenoxy}acetic acid] are 223 to 224 °C and less than 50%.
In turn, `CNC(=O)COc1cccc(CN2C(=O)C3(COc4cc5c(cc43)CCO5)c3ccccc32)c1` (stereo not drawn) [Example 16, N-methyl-2-{3-[(2′-oxo-5,6-dihydrospiro[benzo[1,2-b:5,4-b′]difuran-3,3′-indol]-1′(2′H)-yl)methyl]phenoxy}acetamide] had a melting point of 175 to 176 °C. For the same compound, the half-inhibitory concentration (IC50) in data set [1] lay within 1 to 100 nM. Further, the inhibition at 10 µM in data set [2] is more than 50%.
For `C[S+]([O-])c1ccc(CN2C(=O)C3(COc4cc5c(cc43)CCO5)c3ccccc32)cc1` (stereo not drawn) [Example 17, 1′-[4-(methylsulfinyl)benzyl]-5,6-dihydrospiro[benzo[1,2-b:5,4-b′]difuran-3,3′-indol]-2′(1′H)-one], the half-maximal inhibitory concentration (IC50) in data set [1] fell in the range of 100 to 1000 nM. Moreover, the inhibition at 10 µM in data set [2] is more than 50%.
The like results for `CS(=O)(=O)N(c1ccc2c(c1)OCC21C(=O)N(C[C@H]2CCCO2)c2ccccc21)S(C)(=O)=O` (stereo partly drawn) [Example 18, N-(methylsulfonyl)-N-{2′-oxo-1′-[(2R)-tetrahydrofuran-2-ylmethyl]-1′,2′-dihydrospiro[1-benzofuran-3,3′-indol]-6-yl}methanesulfonamide] were, in that order, 1000 to 10000 nM and less than 50%.
`CC(N)COc1ccc2c(c1)OCC21C(=O)N(C[C@H]2CCCO2)c2ccccc21.Cl` (stereo partly drawn) [Example 20, 6-(2-aminopropoxy)-1′-[(2R)-tetrahydrofuran-2-ylmethyl]spiro[1-benzofuran-3,3′-indol]-2′(1′H)-one hydrochloride]: the melting point lay within 120 to 130 °C. Besides, the IC50 in data set [1] is 1000 to 10000 nM. Moreover, the inhibition at 10 µM in data set [2] was less than 50%.
For `CN(C)CCOc1ccc2c(c1)OCC21C(=O)N(C[C@H]2CCCO2)c2ccccc21` (stereo partly drawn) [Example 21, 6-[2-(dimethylamino)ethoxy]-1′-[(2R)-tetrahydrofuran-2-ylmethyl]spiro[1-benzofuran-3,3′-indol]-2′(1′H)-one], the half-maximal inhibitory concentration (IC50) in data set [1] was in the range of 1000 to 10000 nM. Moreover, in data set [2], the inhibition at 10 µM is less than 50%.
